Assay results reported in US7179612B2, “Method for detecting a lipoprotein-acute phase protein complex and predicting an increased risk of system failure or mortality” (bioMerieux, Inc., priority 2000, dated 2007).

What was measured:
VLDL/CRP complex [1] = molecular target: T1, VLDL/CRP complex (Homo sapiens, UniProt P02741); test: Inhibition of VLDL/CRP complex formation (Ca2+-dependent turbidity change); type: biochemical
T1 sequence (P02741 19-224): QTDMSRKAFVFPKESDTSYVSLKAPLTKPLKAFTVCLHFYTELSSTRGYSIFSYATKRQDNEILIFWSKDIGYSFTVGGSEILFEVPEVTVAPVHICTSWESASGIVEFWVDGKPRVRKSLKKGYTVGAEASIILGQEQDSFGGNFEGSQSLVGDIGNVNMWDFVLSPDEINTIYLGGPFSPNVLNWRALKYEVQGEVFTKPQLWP
Description: It is known that CRP binds directly to PC and that PC competes with lipoproteins for binding to CRP.

VLDL/CRP complex [2] = molecular target: T1, VLDL/CRP complex; test: Calcium concentration dependence of formation of the VLDL/CRP complex; type: biochemical; settings: FIG. 38; read-out: calcium concentration at which complex formation is half maximal
Protocol: FIG. 38 is a graph depicting the calcium concentration dependence of formation of the VLDL/CRP complex. Complex formation is half maximal at 5.0 mM calcium.

CRP = molecular target: T2, CRP (Homo sapiens, UniProt P02741); test: Direct binding of apo(B) to CRP
T2 construct: from tissue; host or cells: patient plasma (calcium precipitate, ammonium sulfate fractionation, Q-Sepharose peak 3)
T2 sequence (P02741 19-224): T1 sequence (P02741 19-224)

Molecule	inhibition of complex formation (result in words) (VLDL/CRP complex [1])	also measured
[Ca+2] [calcium]	–	EC50 (VLDL/CRP complex [2]): 5 mM
NCCOP(=O)(O)O [phosphorylethanolamine]	inhibited	–
apo(B): apo-lipoprotein B, the major protein component of VLDL	–	direct binding to CRP (result in words) (CRP): can bind directly to CRP

The next lines start with results.

inhibition of complex formation (result in words) (VLDL/CRP complex [1])	Molecule	also measured
inhibited	NCCCCCC(=O)O [EACA]	IC50 (VLDL/CRP complex [1]; FIG. 40): 2.1 mM
inhibited	phosphotidylcholine	–
inhibited	phosphotidylethanolamine	–
